EC50 data for ten compounds are collected here from patent publication US9284312B2, “N-methyl tetrahydroquinoline M1 receptor positive allosteric modulators” (Merck Sharp & Dohme Corp., priority 2011, dated 2016).

The assay addresses T1, acetylcholine muscarinic M1 receptor (Homo sapiens, UniProt P11229).
T1 construct: expressed in transfected cells; host or cells: CHOnfat (CHO cells, Geneticin-selected) expressing hM1
T1 sequence (P11229 1-460): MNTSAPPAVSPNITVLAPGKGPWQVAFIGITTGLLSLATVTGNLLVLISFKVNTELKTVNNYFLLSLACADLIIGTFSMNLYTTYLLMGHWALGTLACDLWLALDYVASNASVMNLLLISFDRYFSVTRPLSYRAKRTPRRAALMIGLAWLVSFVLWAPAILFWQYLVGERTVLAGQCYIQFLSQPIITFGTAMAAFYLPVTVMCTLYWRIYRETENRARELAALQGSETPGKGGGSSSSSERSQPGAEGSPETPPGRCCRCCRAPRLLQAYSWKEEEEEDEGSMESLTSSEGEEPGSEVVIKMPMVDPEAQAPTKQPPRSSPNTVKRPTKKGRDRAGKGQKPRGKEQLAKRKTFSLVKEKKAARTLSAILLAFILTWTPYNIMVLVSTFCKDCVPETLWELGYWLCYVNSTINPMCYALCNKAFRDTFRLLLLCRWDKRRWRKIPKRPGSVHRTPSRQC
The assay is described as follows: muscarinic FLIPR assay: intracellular calcium in CHOnfat/hM1 cells with EC20 acetylcholine (positive allosteric modulation). The class given is cell-based. Here is the method: The assay studies the effect of one or several concentrations of test compounds on basal or acetylcholine-stimulated Ca^2+ levels using FLIPR.
Compounds are prepared and subjected to a preincubation period of 4 min. Thereafter, a single EC20 concentration of acetylcholine is added to each well (3 nM final). The intracellular Ca^2+ level of each sample is measured and compared to an acetylcholine control to determine any modulatory activity.
Cells: CHOnfat/hM1, hM2, hM3 or hM4 cells are plated 24 hr before the assay at a density of 18,000 cells/well (100 μL) in a 384 well plate. CHOnfat/hM1 and CHOnfat/hM3 Growth Medium: 90% DMEM (Hi Glucose); 10% HI FBS; 2 mM L-glutamine; 0.1 mM NEAA; Pen-Strep; and 1 mg/ml Geneticin, are added. For M2Gqi5CHOnfat and M4Gqi5CHOnfat cells, an additional 600 ug/ml hygromycin is added.
Equipment: 384 well plate, 120 μL addition plate; 96-well Whatman 2 ml Uniplate Incubator, 37° C., 5% CO2; Skatron EMBLA-384 Plate Washer; Multimek Pipetting System; Genesis Freedom 200 System; Mosquito System; Temo Nanoliter Pipetting System; and FLIPR^384 Fluorometric Imaging Plate Reader System are used.
Buffers. Assay Buffer: Hanks Balanced Salt Solution, with 20 mM Hepes, 2.5 mM Probenecid (Sigma P-8761) first dissolved in 1 N NaOH, 1% Bovine Serum Albumin (Sigma A-9647). Dye Loading Buffer: Assay Buffer plus 1% Fetal Bovine Serum and Fluo-4AM/Pluronic Acid Mixture. 2 mM Fluo-4AM ester stock in DMSO (Molecular Probes F-14202) Concentration of 2 μM in buffer for a final concentration of […] in Assay. 20% Pluronic Acid Solution stock, with concentration of 0.04% in Buffer, 0.02% in Assay.
65 μL of 2 mM Fluo-4AM are mixed with 130 μL of 20% Pluronic Acid. The resulting solution and 650 μL FBS is added to the assay buffer for a total volume of 65 mL. Positive Controls: 4-Br-A23187: 10 mM in DMSO; final concentration 10 μM. Acetylcholine: 10 mM in water, working stock at both 20 μM and 30 μM in assay buffer, final concentration of 10 μM. This is used to check the maximum stimulation of the CHOK1/hM1 cells. 20 μM (2×) acetylcholine is added in the preincubation part of the assay, and the 30 μM (3×) stock is added in the second part. (EC20)Acetylcholine: 10 mM in water, working stock of 9 nM (3×), and final concentration in assay is 3 nM. This is used after the preincubation with test compounds. Addition of the EC20 Acetylcholine to each well with a test compound will ascertain any modulator activity. 24 wells contain 3 nM Acetylcholine alone as a control.
Determining Activity of Putative Compounds:
Screening Plate: Compounds are titrated in 96-well plates (columns 2-11), 100% DMSO, started at a concentration of 15 mM (150× stock concentration), and 3-fold serial dilutions using Genesis Freedom200 System. Four 96-well plates are combined into a 384-well plate using Mosquito Nanoliter Pipetting System by transferring 1 μl of serial diluted compounds to each well, and 1 mM acetylcholine (100× stock concentration) were added as a control. Using Temo, 49 μl assay buffer is added to each well of the 384-well plate right before assay.
In a 96-well Whatman 2 ml Uniplate, 9 nM Acetylcholine (3×) is pipetted into wells corresponding to the screening compounds, and into control wells. The 30 μM acetylcholine control (3×) is added into control wells, and the 3× agonist plate is transferred into a 384 well plate.
Cells are washed three times with 100 μL of buffer, leaving 30 μL of buffer in each well. Using Multimek, 30 μL of Dye Loading Buffer is added into each well and incubated at 37° C., 5% CO2 for up to one hr.
After 60 min, the cells are washed three times with 100 μL of buffer, leaving 30 μL of buffer in each well. The cell plate, screening plate, and agonist addition plates are placed on the platform in the FLIPR and the door closed. A signal test to check background fluorescence and basal fluorescence signal is performed. Laser intensity is adjusted if necessary. […]

[1] abbreviates: CHOnfat/hM1 cells, FLIPR Ca2+, 4 min preincubation, then EC20 acetylcholine (3 nM final), read-out: IP Value (inflection point).

Each structure is given as a SMILES string. pEC50: −log10 of the molar value. Like-named read-outs stand apart in the source and are kept apart here.

With `CN1CC=Cc2c(Cc3cccnc3)cc3c(=O)n([C@H]4CCCC[C@@H]4O)cnc3c21` [Example 5, 3-[(1S,2S)-2-Hydroxycyclohexyl]-10-methyl-6-(pyridine-3-ylmethyl)-9,10-dihydropyrido[3,2-h]quinazolin-4(3H)-one], the pEC50 under setting [1] is 7.68. For `CCN1CC=Cc2c(Cc3ccc(Cl)nc3)cc3c(=O)n([C@H]4CCCC[C@@H]4O)cnc3c21` [Example 46], the pEC50 (column head 'H Pot.' of the untitled table after Table 1, no unit or method printed, read-out: H Pot.) is 6.58. As to `CN1CC=Cc2c(Cc3ccc(Cl)nc3)cc3c(=O)n([C@H]4CCOC[C@@H]4O)cnc3c21` [Example 2, 6-[(6-Chloropyridin-3-yl)methyl]-3-[(3R,4S)-3-hydroxytetrahydro-2H-pyran-4-yl]-10-methyl-9,10-dihydropyrido[3,2-h]quinazolin-4(3H)-one], the pEC50 under setting [1] is 8.37. On the same count and under the same terms, the result for `CN1CC=Cc2c(Cc3ccc(Cl)nc3)cc3c(=O)n([C@H]4CCCC[C@@H]4O)cnc3c21` [Example 1, 6-[(6-Chloropyridin-3-yl)methyl]-3-[(1S,2S)-2-hydroxycyclohexyl]-10-methyl-9,10-dihydropyrido[3,2-h]quinazolin-4(3H)-one] reads 8.52; that for `COc1cc(Cc2cc3c(=O)n([C@H]4CCCC[C@@H]4O)cnc3c3c2C=CCN3C)ccn1` [Example 9, 3-[(1S,2S)-2-Hydroxycyclohexyl]-6-[(2-methoxypyridin-4-yl)methyl]-10-methyl-9,10-dihydropyrido[3,2-h]quinazolin-4(3H)-one], 8.28; that for `CN1CC=Cc2c(Cc3ccc(-c4cnn(C)c4)nc3)cc3c(=O)n([C@H]4CCCC[C@@H]4O)cnc3c21` [Example 6, 3-[(1S,2S)-2-Hydroxycyclohexyl]-10-methyl-6-{[6-(1-methyl-1H-pyrazol-4-yl)pyridin-3-yl]methyl}-9,10-dihydropyrido[3,2-h]quinazolin-4(3H)-one], 8.59. For the compound `CN(C)C(=O)Oc1ccc(Cc2cc3c(=O)n([C@H]4CCCC[C@@H]4O)cnc3c3c2C=CCN3C)cc1` [Example 8, 4-({3-[(1S,2S)-2-Hydroxycyclohexyl]-10-methyl-4-oxo-3,4,9,10-tetrahydropyrido[3,2-h]quinazolin-6-yl}methyl)phenyl dimethylcarbamate], the pEC50 is 7.60. As for `CSc1ccc(Cc2cc3c(=O)n([C@H]4CCCC[C@@H]4O)cnc3c3c2C=CCN3C)cn1` [Example 3, 3-[(1S,2S)-2-Hydroxycyclohexyl]-10-methyl-6-{[-(methylthio)-pyridin-3-yl]methyl}-9,10-dihydropyrido[3,2-h]quinazolin-4(3H)-one], the pEC50 under setting [1] was 8.38.

In the case of `CN1CC=Cc2c(Cc3ccc(O)cc3)cc3c(=O)n([C@H]4CCCC[C@@H]4O)cnc3c21` [Example 7, 6-(4-Hydroxybenzyl)-3-[(1S,2S)-2-hydroxycyclohexyl]-10-methyl-9,10-dihydropyrido[3,2-h]quinazolin-4(3H)-one], the pEC50 under setting [1] was 8.59. Still for that read-out and setting: the result for `COc1ccc(Cc2cc3c(=O)n([C@H]4CCCC[C@@H]4O)cnc3c3c2C=CCN3C)cn1` [Example 4, 3-[(1S,2S)-2-Hydroxycyclohexyl]-6-[(6-methoxypyridin-3-yl)methyl]-10-methyl-9,10-dihydropyrido[3,2-h]quinazolin-4(3H)-one] reads 7.85.
